Experimental data as given in patent US7468392B1, “Anti-fatigue cyclohexenone compounds from antrodia camphorata” (Golden Biotechnology Corporation, priority 2007, dated 2008).

What was measured:
Type in all cases: in vivo, human
healthy male volunteers [1] = experiment: Ammonia levels in blood before/after exhaustive exercise at 80% VO2max; settings: for blood ammonia levels: exercise (DE), plasma, Mean, n = 15; for effect of supplementation after exercise on metabolism of blood ammonia: exhaustive exercise at 80% VO2max, versus placebo
Protocol: (§1) The present invention is based on supplementing cyclohexenone of Antrodia camphorata or placebo with no cyclohexenone of Antrodia camphorata to the subjects. The subjects were tested for the anti-fatigue function after supplementing cyclohexenone of Antrodia camphorata by measuring the amounts of fatigue indexes such as CPK, lactic acid, glucose, ammonia and free fatty acid before and after exhaustive exercise load at 80% VO2max.
(§2) Subjects were randomized to receive either cyclohexenone of Antrodia camphorata or placebo. Placebo contained substances such as cornstarch but no cyclohexenone of Antrodia camphorata. A double-blind, cross-over method was performed in this study where neither the evaluator nor the subject knew the content of the test substances. Based on rules of order balance, each subject have to receive the following tests: relaxing and receiving placebo (PR), exercising and receiving placebo (PE), relaxing and receiving cyclohexenone of Antrodia camphorata (DR), and exercising and receiving cyclohexenone of Antrodia camphorata (DE). Each test was carried out for one week, and took one week off before the next test until all 4 tests were performed in each subject. The exercise was performed on a treadmill with the load intensity at the measured 80% VO2max (7.61±1.87) until exhausted. Subjects received cyclohexenone of Antrodia camphorata or placebo after exercise in the amount of 0.2 g/kg body weight per day. […] Blood was collected in anticoagulant (such as EDTA) containing collection tubes, and was centrifuged at 3000 g. for 10 min to collect the plasma. The fatigue indexes such as CPK, lactic acid, glucose, ammonia and free fatty acid were analyzed accordingly. The physiological and biochemical changes before and after exercise with different supplements were compared and shown as values of mean and standard error (Mean±SEM). […] The details for the biochemical analysis and results are described below:
The measurement of blood ammonia was performed with an automated blood analyzer Johnson & Johnson DT-60II based on the spectrophotometric method. Bromphenol blue was added into a defined amount of plasma to generate blue products. The reaction is shown below:
The absorbance at 605 nm was measured to obtain the concentration of blood ammonia.

healthy male volunteers [2] = experiment: Blood glucose before meals, before/after exhaustive exercise at 80% VO2max; settings: for blood glucose levels: plasma, Mean, n = 15; for effect of supplementation on blood glucose metabolism before meals: exhaustive exercise at 80% VO2max, versus placebo
Protocol: as §1, §2
The measurement of blood glucose was performed with an automated blood analyzer Johnson & Johnson DT-600 II based on enzyme function and spectrophotometric method. Glucose oxidase was added into a defined amount of plasma for reaction, followed by addition of 4-aminoantipyrine and 1,7-dihydroxyphthalene. A red product was formed through function of peroxidase. The reactions are shown below:
The absorbance at 555 nm was measured to obtain the concentration of blood glucose.

healthy male volunteers [3] = experiment: Lactate levels in blood before/after exhaustive exercise at 80% VO2max; settings: for blood lactate levels: plasma, Mean, n = 15; for effect of supplementation after exercise on metabolism of blood lactate: exhaustive exercise at 80% VO2max, versus placebo
Protocol: as §1, §2
The measurement of blood lactate was performed with an automated blood analyzer using dry chemistry method (Johnson & Johnson DT-60II) based on enzyme function and spectrophotometric theory. Lactate oxidase was added into a defined amount of plasma for reaction, followed by addition of 4-aminoantipyrine and 1,7-dihydroxynaphthalene. A red product was formed through activities of peroxidase. The reactions are shown below:
The absorbance at 540 nm was measured to obtain the concentration of blood lactate.

[4] = listed as cyclohexenone from Antrodia camphorata
[5] = Relax (DR), Post-exercise 0.5 h
[6] = Relax (DR), Post-exercise 120 h
[7] = Relax (DR), Post-exercise 168 h
[8] = exercise (DE), Post-exercise 0 h
[9] = exercise (DE), Post-exercise 0.5 h
[10] = exercise (DE), Post-exercise 1 h
[11] = exercise (DE), Post-exercise 2 h
[12] = exercise (DE), Post-exercise 24 h
[13] = exercise (DE), Post-exercise 48 h
[14] = exercise (DE), Post-exercise 72 h
[15] = exercise (DE), Post-exercise 120 h
[16] = exercise (DE), Post-exercise 168 h
[17] = exercise (DE), Prior to exercise
[18] = listed as cyclohexenone of Antrodia camphorata

COC1=C(OC)C(O)C(C/C=C(\C)CC/C=C(\C)CCC=C(C)C)C(C)C1=O (stereo not drawn) [cyclohexenone, 4-hydroxy-2,3-dimethoxy-6-methyl-5(3,7,11-trimethyl-dodeca-2,6,10-trienyl)-cyclohex-2-enone]
blood ammonia levels (healthy male volunteers [1]; Post-exercise 0 h): 118.07 µg/dL
blood ammonia levels (healthy male volunteers [1]; Post-exercise 0.5 h): 57.64 µg/dL
blood ammonia levels (healthy male volunteers [1]; Post-exercise 1 h): 44.86 µg/dL
blood ammonia levels (healthy male volunteers [1]; Post-exercise 2 h): 37.53 µg/dL
blood ammonia levels (healthy male volunteers [1]; Post-exercise 24 h): 27.93 µg/dL
blood ammonia levels (healthy male volunteers [1]; Post-exercise 48 h): 20.93 µg/dL
blood ammonia levels (healthy male volunteers [1]; Post-exercise 72 h): 30.07 µg/dL
blood ammonia levels (healthy male volunteers [1]; Post-exercise 120 h): 23.21 µg/dL
blood ammonia levels (healthy male volunteers [1]; Post-exercise 168 h): 24.86 µg/dL
blood ammonia levels (healthy male volunteers [1]; Prior to exercise): 45.86 µg/dL
effect of supplementation after exercise on metabolism of blood ammonia (healthy male volunteers [1]; [4]): facilitates the metabolism of blood ammonia
effect of supplementation after exercise on metabolism of blood ammonia (healthy male volunteers [1]; listed as cyclohexenone from Antrodia camphorea): beneficial to the recovery of creatine phosphate kinase and blood ammonia
blood ammonia level, exercise group versus relax group receiving cyclohexenone (healthy male volunteers [1]; post exercise at 2 h, p<0.05): significantly superior
blood glucose levels (healthy male volunteers [2]; Relax (DR), Post-exercise 0 h): 91.93 mg/dL
blood glucose levels (healthy male volunteers [2]; [5]): 93.33 mg/dL
blood glucose levels (healthy male volunteers [2]; Relax (DR), Post-exercise 1 h): 95.53 mg/dL
blood glucose levels (healthy male volunteers [2]; Relax (DR), Post-exercise 2 h): 103.20 mg/dL
blood glucose levels (healthy male volunteers [2]; Relax (DR), Post-exercise 24 h): 90.00 mg/dL
blood glucose levels (healthy male volunteers [2]; Relax (DR), Post-exercise 48 h): 90.40 mg/dL
blood glucose levels (healthy male volunteers [2]; Relax (DR), Post-exercise 72 h): 93.40 mg/dL
blood glucose levels (healthy male volunteers [2]; [6]): 94.00 mg/dL
blood glucose levels (healthy male volunteers [2]; [7]): 92.20 mg/dL
blood glucose levels (healthy male volunteers [2]; Relax (DR), Prior to exercise): 91.73 mg/dL
blood glucose levels (healthy male volunteers [2]; [8]): 103.43 mg/dL
blood glucose levels (healthy male volunteers [2]; [9]): 88.71 mg/dL
blood glucose levels (healthy male volunteers [2]; [10]): 93.86 mg/dL
blood glucose levels (healthy male volunteers [2]; [11]): 101.07 mg/dL
blood glucose levels (healthy male volunteers [2]; [12]): 94.43 mg/dL
blood glucose levels (healthy male volunteers [2]; [13]): 89.21 mg/dL
blood glucose levels (healthy male volunteers [2]; [14]): 93.00 mg/dL
blood glucose levels (healthy male volunteers [2]; [15]): 93.29 mg/dL
blood glucose levels (healthy male volunteers [2]; [16]): 92.93 mg/dL
blood glucose levels (healthy male volunteers [2]; [17]): 89.21 mg/dL
effect of supplementation on blood glucose metabolism before meals (healthy male volunteers [2]; [4]): no effect
effect of supplementation on blood glucose metabolism before meals (healthy male volunteers [2]; [18]): no significant difference
blood lactate levels (healthy male volunteers [3]; Relax (DR), Post-exercise 0 h): 2.39 mmol/L
blood lactate levels (healthy male volunteers [3]; [5]): 2.25 mmol/L
blood lactate levels (healthy male volunteers [3]; Relax (DR), Post-exercise 1 h): 3.00 mmol/L
blood lactate levels (healthy male volunteers [3]; Relax (DR), Post-exercise 2 h): 2.52 mmol/L
blood lactate levels (healthy male volunteers [3]; Relax (DR), Post-exercise 24 h): 2.26 mmol/L
blood lactate levels (healthy male volunteers [3]; Relax (DR), Post-exercise 48 h): 2.71 mmol/L
blood lactate levels (healthy male volunteers [3]; Relax (DR), Post-exercise 72 h): 2.22 mmol/L
blood lactate levels (healthy male volunteers [3]; [6]): 2.41 mmol/L
blood lactate levels (healthy male volunteers [3]; [7]): 2.41 mmol/L
blood lactate levels (healthy male volunteers [3]; Relax (DR), Prior to exercise): 2.54 mmol/L
blood lactate levels (healthy male volunteers [3]; [8]): 7.07 mmol/L
blood lactate levels (healthy male volunteers [3]; [9]): 3.20 mmol/L
blood lactate levels (healthy male volunteers [3]; [10]): 2.96 mmol/L
blood lactate levels (healthy male volunteers [3]; [11]): 2.9 mmol/L
blood lactate levels (healthy male volunteers [3]; [12]): 2.39 mmol/L
blood lactate levels (healthy male volunteers [3]; [13]): 2.77 mmol/L
blood lactate levels (healthy male volunteers [3]; [14]): 2.18 mmol/L
blood lactate levels (healthy male volunteers [3]; [15]): 2.53 mmol/L
blood lactate levels (healthy male volunteers [3]; [16]): 2.23 mmol/L
blood lactate levels (healthy male volunteers [3]; [17]): 2.50 mmol/L
effect of supplementation after exercise on metabolism of blood lactate (healthy male volunteers [3]; [4]): did not affect the metabolism of blood lactate
effect of supplementation after exercise on metabolism of blood lactate (healthy male volunteers [3]; [18]): no significant difference
